Here are results for 10 substances from patent US20240247080A1, “GLP1/GIP/NPY2 RECEPTOR TRIPLE AGONISTS” (Boehringer Ingelheim International GmbH, priority 2022, published 2024).

Where two headings read alike, the source gives them in different places. Starred links: 1 amine or outer side, 2 acyl side, 3 side chain; linkers in the order of their positions; H or OH if unused. Non-standard residues stand in square brackets, D forms with d. Groups on a side chain read outwards from the residue. No end group written: not given here. *: point of attachment. C20 diacid = O=C(O)CCCCCCCCCCCCCCCCCCC(=O)*; C18 diacid = O=C(O)CCCCCCCCCCCCCCCCC(=O)*; γGlu = O=C(O)[C@H](CCC(=O)[*:2])N[*:1]; εLys = N[C@@H](CCCCN[*:1])C(=O)[*:2]; AEEA = NCCOCCOCC(=O)O; Aib = CC(C)(N)C(=O)O Where only a bound is given, the exact number is not on record here.

Assay type in all cases: cell-based
Common to all, as to details: CreLuc reporter gene assay
(In a reporter assay the amount or activity of a reporter protein is the signal.)

In one assay the target is T1, hGLP1R (Homo sapiens, UniProt P43220).
T1 construct: expressed in transfected cells; host or cells: HEK-293 cells carrying a CRE-luciferase reporter gene
T1 sequence (P43220 24-463): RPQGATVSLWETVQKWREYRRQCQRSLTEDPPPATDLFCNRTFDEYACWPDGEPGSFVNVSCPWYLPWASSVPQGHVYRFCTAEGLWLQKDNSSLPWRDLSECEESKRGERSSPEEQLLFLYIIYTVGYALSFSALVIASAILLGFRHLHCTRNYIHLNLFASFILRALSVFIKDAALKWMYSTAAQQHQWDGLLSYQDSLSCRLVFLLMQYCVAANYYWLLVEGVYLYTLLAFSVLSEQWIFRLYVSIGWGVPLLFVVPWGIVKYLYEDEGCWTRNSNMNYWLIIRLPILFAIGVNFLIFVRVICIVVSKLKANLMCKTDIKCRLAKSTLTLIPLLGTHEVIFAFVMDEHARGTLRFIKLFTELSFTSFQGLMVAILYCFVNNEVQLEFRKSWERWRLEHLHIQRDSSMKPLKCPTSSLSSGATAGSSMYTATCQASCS
As to the kind of experiment: hGLP1R CreLuc reporter gene assay in 0.5% and 100% plasma. The method, boiled down: (§1)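 HEK-293 cells co-expressing GLP-1 or NPY2 receptor and CHO cells expressing GIP receptor, each carrying a CRE-driven luciferase reporter, were stimulated with peptides for 4 hours at 37 °C. Luminescence was read after Bright-Glo addition. EC50 came from 8-point, four-decade curves fitted by variable-slope non-linear regression.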

Another assay concerns the target T2, hGIPR (Homo sapiens, UniProt P48546).
T2 construct: expressed in transfected cells; host or cells: CHO cells carrying a CRE-luciferase reporter gene
T2 sequence (P48546 22-466): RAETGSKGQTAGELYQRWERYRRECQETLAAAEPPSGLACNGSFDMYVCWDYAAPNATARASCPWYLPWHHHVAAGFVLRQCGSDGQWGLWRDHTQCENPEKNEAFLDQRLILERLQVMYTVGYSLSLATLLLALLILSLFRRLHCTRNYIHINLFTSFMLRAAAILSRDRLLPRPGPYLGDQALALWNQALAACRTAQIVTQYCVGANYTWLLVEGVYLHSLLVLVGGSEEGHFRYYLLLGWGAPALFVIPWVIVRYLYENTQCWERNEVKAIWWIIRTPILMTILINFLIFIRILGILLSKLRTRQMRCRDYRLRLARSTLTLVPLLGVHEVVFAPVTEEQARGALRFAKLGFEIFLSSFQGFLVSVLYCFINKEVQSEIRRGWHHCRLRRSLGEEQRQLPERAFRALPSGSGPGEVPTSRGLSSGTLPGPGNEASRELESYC
As to the kind of experiment: hGIPR CreLuc reporter gene assay in 0.5% and 100% plasma. The method, boiled down:
as §1

A further assay addresses T3, hNPY2R (Homo sapiens, UniProt P49146).
T3 construct: expressed in transfected cells; host or cells: HEK-293 cells carrying a CRE-luciferase reporter gene
T3 sequence (P49146 1-381): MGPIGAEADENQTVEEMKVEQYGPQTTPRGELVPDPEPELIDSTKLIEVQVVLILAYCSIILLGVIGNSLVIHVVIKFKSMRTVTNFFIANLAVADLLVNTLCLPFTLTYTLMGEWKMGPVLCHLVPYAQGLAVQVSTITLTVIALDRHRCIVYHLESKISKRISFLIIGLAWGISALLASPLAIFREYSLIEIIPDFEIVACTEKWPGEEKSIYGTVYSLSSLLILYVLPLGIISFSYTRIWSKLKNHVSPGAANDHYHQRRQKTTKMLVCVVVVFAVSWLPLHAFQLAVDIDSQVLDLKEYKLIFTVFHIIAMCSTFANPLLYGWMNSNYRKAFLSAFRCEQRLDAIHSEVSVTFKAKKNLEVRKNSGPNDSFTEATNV
Briefly: hNPY2R CreLuc reporter gene assay in 0.5% and 100% plasma. The method, boiled down:
as §1

The mark [1] stands for this setting: 0.5% human plasma, read-out: hGLP1R 0.5% hP.
The mark [2] stands for this setting: 0.5% human plasma, read-out: hGIPR 0.5% hP.
Where [3] appears, read: 100% human plasma, read-out: hGIPR 100% hP.
Setting [4] is: 0.5% human plasma, read-out: hNPY2R 0.5% hP.
Where [5] appears, read: 100% human plasma, read-out: hGLP1R 100% hP.
Where [6] appears, read: 100% human plasma, read-out: hNPY2R 100% hP.

Turning to “Y[Aib]EGTFTSDYSI[Aib]LEKQAQ[Aib]AFVEWLIK([εLys-γGlu-γGlu-γGlu-γGlu-γGlu-C18 diacid])GGPSEGASLRHYYNWLTRQRY-NH2 [Compound 295, Y-Aib-E-G-T-F-T-S-D-Y-S-I-Aib-L-E-K-Q-A-Q-Aib-A-F-V-E-W-L-I-K(1,3)-GGPSEGASLRHYYNWLTRQRY-NH2.C18DA-gGlu-gGlu-glu-gGlu-gGlu-eLys(1,2)]”, the EC50 on hGLP1R (setting [1]) came out at 0.14 nM; on hGIPR (setting [2]) it was 0.3 nM; on hGIPR (setting [3]), 0.98 nM; on hNPY2R (setting [4]), 10.9 nM.
For “H-Y[Aib]EGTFTSDYSI[Aib]LEKQAQ[Aib]AFVQWLIK([εLys-γGlu-γGlu-γGlu-γGlu-γGlu-γGlu-C18 diacid])GGPSSGASLRHYYNWLTRQRY-NH2 [Compound 170, Y-Aib-E-G-T-F-T-S-D-Y-S-I-Aib-L-E-K-Q-A-Q-Aib-A-F-V-Q-W-L-I-K(1,3)-GGPSSGASLRHYYNWLTRQRY-NH2.C18DA-gGlu-gGlu-gGlu-gGlu-gGlu-gGlu-eLys(1,2)]”, the EC50 at hGLP1R (setting [1]) stood at 0.09 nM; on hGIPR (setting [2]), 0.24 nM; on hGIPR (setting [3]), 1.15 nM; at hNPY2R (setting [4]) it was 19.2 nM.
Regarding “H-Y[Aib]EGTFTSDYSI[Aib]LEEEAQ[Aib]AFVEWLIK([εLys-γGlu-γGlu-γGlu-γGlu-γGlu-γGlu-C20 diacid])GGPSSGASLRHYYNWLTRQRY-NH2 [Compound 66, Y-Aib-E-G-T-F-T-S-D-Y-S-I-Aib-L-E-E-E-A-Q-Aib-A-F-V-E-W-L-I-K(1,3)-GGPSSGASLRHYYNWLTRQRY-NH2.C20DA-gGlu-gGlu-gGlu-gGlu-gGlu-gGlu-eLys(1,2)]”, the EC50 came to 0.24 nM at hGLP1R (setting [1]), 11.6 nM at hGLP1R (setting [5]), 0.64 nM at hGIPR (setting [2]) and 18.7 nM on hNPY2R (setting [4]).
Consider “H-Y[Aib]EGTFTSDYSI[Aib]LEKQAQ[Aib]AFVQWLIK([εLys-γGlu-γGlu-γGlu-γGlu-γGlu-C18 diacid])GGPEEGASLRHYYNWLTRQRY-NH2 [Compound 143, Y-Aib-E-G-T-F-T-S-D-Y-S-I-Aib-L-E-K-Q-A-Q-Aib-A-F-V-Q-W-L-I-K(1,3)-GGPEEGASLRHYYNWLTRQRY-NH2.C18DA-gGlu-gGlu-gGlu-gGlu-gGlu-eLys(1,2)]”, for which the EC50 turned out to be 0.13 nM on hGLP1R (setting [1]); 4.24 nM at hGLP1R (setting [5]); 0.22 nM at hGIPR (setting [2]); 13.1 nM on hNPY2R (setting [4]); 42.2 nM at hNPY2R (setting [6]).
For “H-Y[Aib]EGTFTSDYSI[Aib]LEKQAQ[Aib]AFVQWLIK([εLys-γGlu-γGlu-γGlu-γGlu-γGlu-γGlu-C18 diacid])GGPEEGASLRHYYNWLTRQRY-NH2 [Compound 149, Y-Aib-E-G-T-F-T-S-D-Y-S-I-Aib-L-E-K-Q-A-Q-Aib-A-F-V-Q-W-L-I-K(1,3)-GGPEEGASLRHYYNWLTRQRY-NH2.C18DA-gGlu-gGlu-gGlu-gGlu-gGlu-gGlu-eLys(1,2)]”, the EC50 at hGLP1R (setting [1]) was found to be 0.15 nM; at hGLP1R (setting [5]) it was 4.76 nM; at hGIPR (setting [2]) it was 0.58 nM; on hGIPR (setting [3]), 0.79 nM; on hNPY2R (setting [4]), 18.6 nM.
Turning to “H-Y[Aib]EGTFTSDYSI[Aib]LEKQAQ[Aib]AFVEWLIK([εLys-γGlu-γGlu-γGlu-γGlu-γGlu-γGlu-C20 diacid])GGPSSGASLRHYLNL[Aib]TRQRY-NH2 [Compound 17, Y-Aib-E-G-T-F-T-S-D-Y-S-I-Aib-L-E-K-Q-A-Q-Aib-A-F-V-E-W-L-I-K(1,3)-G-G-P-S-S-G-A-S-L-R-H-Y-L-N-L-Aib-T-R-Q-R-Y-NH2.C20DA-gGlu-gGlu-gGlu-gGlu-gGlu-gGlu-eLys(1,2)]”, the values for the EC50 on hGLP1R (setting [1]), at hGIPR (setting [2]) and on hNPY2R (setting [4]) were 0.14 nM, 0.43 nM and over 100 nM, respectively.
For the substance “H-Y[Aib]EGTFTSDYSI[Aib]LEKQAQ[Aib]AFVEWLIK([εLys-γGlu-γGlu-γGlu-γGlu-γGlu-γGlu-C20 diacid])GGPSSGASLRHYY[Aib]WLTRQRY-NH2 [Compound 213, Y-Aib-E-G-T-F-T-S-D-Y-S-I-Aib-L-E-K-Q-A-Q-Aib-A-F-V-E-W-L-I-K(1,3)-G-G-P-S-S-G-A-S-L-R-H-Y-Y-Aib-W-L-T-R-Q-R-Y-NH2.C20DA-gGlu-gGlu-gGlu-gGlu-gGlu-gGlu-eLys(1,2)]”, the EC50 is 0.16 nM on hGLP1R (setting [1]); 0.34 nM on hGIPR (setting [2]); 1.53 nM on hGIPR (setting [3]); over 100 nM on hNPY2R (setting [4]); over 1000 nM on hNPY2R (setting [6]).
Consider “H-Y[Aib]EGTFTSDYSI[Aib]LEKQAQ[Aib]EFVQWLIK([γGlu-γGlu-γGlu-γGlu-γGlu-γGlu-C18 diacid])GGPSEGASLRHYYNWLTRQRY-NH2 [Compound 151, Y-Aib-E-G-T-F-T-S-D-Y-S-I-Aib-L-E-K-Q-A-Q-Aib-E-F-V-Q-W-L-I-K(1,3)-GGPSEGASLRHYYNWLTRQRY-NH2.C18DA-gGlu-gGlu-gGlu-gGlu-gGlu-gGlu(1,2)]”, for which the EC50 was determined as 0.26 nM at hGLP1R (setting [1]), 4.39 nM on hGLP1R (setting [5]), 0.91 nM at hGIPR (setting [2]) and 18.9 nM on hNPY2R (setting [4]).
Consider “H-Y[Aib]EGTFTSDYSI[Aib]LEKQAQ[Aib]AFVQWLIK([AEEA-AEEA-γGlu-γGlu-γGlu-γGlu-γGlu-C20 diacid])GGPESGASLRHYYNWLTRQRY-NH2 [Compound 32, Y-Aib-E-G-T-F-T-S-D-Y-S-I-Aib-L-E-K-Q-A-Q-Aib-A-F-V-Q-W-L-I-K(1,3)-GGPESGASLRHYYNWLTRQRY-NH2.C20DA-gGlu-gGlu-gGlu-gGlu-gGlu-OEG-OEG(1,2)]”, for which the EC50 worked out at 0.07 nM on hGLP1R (setting [1]); 0.16 nM at hGIPR (setting [2]); 1.15 nM on hGIPR (setting [3]); 12.2 nM at hNPY2R (setting [4]); 49.3 nM at hNPY2R (setting [6]).
For “H-Y[Aib]EGTFTSDYSI[Aib]LEKQAQ[Aib]AFVEWLIK([AEEA-AEEA-γGlu-γGlu-γGlu-γGlu-C18 diacid])GGPSSGASLRHYYNWLTRQRY-NH2 [Compound 254, Y-Aib-E-G-T-F-T-S-D-Y-S-I-Aib-L-E-K-Q-A-Q-Aib-A-F-V-E-W-L-I-K(1,3)-GGPSSGASLRHYYNWLTRQRY-NH2.C18DA-gGlu-gGlu-gGlu-gGlu-OEG-OEG(1,2)]”, the EC50 is 0.07 nM on hGLP1R (setting [1]); 1.69 nM at hGLP1R (setting [5]); 0.22 nM on hGIPR (setting [2]); 0.63 nM on hGIPR (setting [3]); 17.8 nM at hNPY2R (setting [4]); 30.9 nM at hNPY2R (setting [6]).
